From publication PMC12548400, “Urease promotes pH homeostasis and growth of Staphylococcus aureus in skin-like conditions” (Journal of Bacteriology, 2025)

Legend:
[1] = molecular target: T1, S. aureus urease (Staphylococcus aureus, UniProt Q2FEK3); assay: urease activity in cell-free lysate with […] urea; coupled glutamate dehydrogenase/NADH assay; format: biochemical
T1 construct: gene ureC; native urease in cell-free lysates of S. aureus LAC (USA300); with UreA, UreB (urease subunits)

[2] = molecular target: T2, jack bean urease (Canavalia ensiformis, UniProt P07374); assay: inhibition of purified urease; coupled glutamate dehydrogenase/NADH depletion assay at […] nm; format: biochemical
T2 construct: commercially purified jack bean urease
T2 sequence (P07374 whole entry, looked up): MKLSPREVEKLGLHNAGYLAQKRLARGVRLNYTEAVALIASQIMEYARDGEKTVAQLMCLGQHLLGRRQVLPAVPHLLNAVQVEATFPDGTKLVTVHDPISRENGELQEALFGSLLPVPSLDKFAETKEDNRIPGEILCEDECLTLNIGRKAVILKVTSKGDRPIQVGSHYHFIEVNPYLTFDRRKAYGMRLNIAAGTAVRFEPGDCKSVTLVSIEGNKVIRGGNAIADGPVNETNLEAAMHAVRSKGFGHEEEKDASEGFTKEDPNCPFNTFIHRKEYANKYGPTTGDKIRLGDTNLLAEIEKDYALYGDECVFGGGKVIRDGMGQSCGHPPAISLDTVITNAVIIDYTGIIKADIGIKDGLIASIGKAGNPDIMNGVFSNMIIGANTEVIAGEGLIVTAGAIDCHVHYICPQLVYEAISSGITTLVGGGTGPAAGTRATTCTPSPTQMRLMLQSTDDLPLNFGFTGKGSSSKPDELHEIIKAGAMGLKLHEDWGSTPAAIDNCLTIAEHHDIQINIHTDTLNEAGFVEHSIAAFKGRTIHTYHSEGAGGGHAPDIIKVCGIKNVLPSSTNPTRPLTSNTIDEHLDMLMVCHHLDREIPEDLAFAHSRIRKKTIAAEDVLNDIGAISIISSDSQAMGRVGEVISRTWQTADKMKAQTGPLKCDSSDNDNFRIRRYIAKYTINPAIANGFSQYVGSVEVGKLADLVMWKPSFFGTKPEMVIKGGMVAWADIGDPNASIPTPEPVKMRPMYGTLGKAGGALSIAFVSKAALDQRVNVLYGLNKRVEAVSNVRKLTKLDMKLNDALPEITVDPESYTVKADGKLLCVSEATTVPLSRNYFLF

[3] = molecular target: T3, S. aureus urease (Staphylococcus aureus, UniProt P67403); assay: urea hydrolysis in lysates by coupled enzyme assay; activity lost in ureD::Tn mutant and restored by complementation; format: cell-based
T3 construct: gene ureC; native urease in cell lysates of S. aureus LAC (USA300); with UreA, UreB (urease subunits)
T3 sequence (P67403 whole entry): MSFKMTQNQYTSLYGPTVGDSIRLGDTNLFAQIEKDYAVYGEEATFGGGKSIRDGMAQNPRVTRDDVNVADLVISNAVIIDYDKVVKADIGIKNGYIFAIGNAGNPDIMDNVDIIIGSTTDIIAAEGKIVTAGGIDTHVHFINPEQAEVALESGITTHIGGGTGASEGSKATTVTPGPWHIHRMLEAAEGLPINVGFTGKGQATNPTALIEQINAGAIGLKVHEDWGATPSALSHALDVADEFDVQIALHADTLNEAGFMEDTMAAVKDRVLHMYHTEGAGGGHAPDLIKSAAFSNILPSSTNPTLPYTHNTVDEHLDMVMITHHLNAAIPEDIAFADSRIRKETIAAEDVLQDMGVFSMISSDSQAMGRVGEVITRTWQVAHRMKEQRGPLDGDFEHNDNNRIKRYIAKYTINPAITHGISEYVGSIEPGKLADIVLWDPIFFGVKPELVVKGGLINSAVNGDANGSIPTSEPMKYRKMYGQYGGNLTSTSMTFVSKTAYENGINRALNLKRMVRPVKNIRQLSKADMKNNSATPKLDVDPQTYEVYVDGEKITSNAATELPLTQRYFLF

T1 sequence (Q2FEK4 whole entry): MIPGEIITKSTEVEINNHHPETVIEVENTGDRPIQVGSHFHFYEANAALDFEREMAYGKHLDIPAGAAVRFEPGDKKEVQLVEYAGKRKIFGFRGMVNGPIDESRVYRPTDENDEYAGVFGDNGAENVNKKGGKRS
T1 sequence (Q2FEK3 whole entry): as the sequence (P67403 whole entry) above
T1 sequence (Q2FEK5 whole entry, further chain): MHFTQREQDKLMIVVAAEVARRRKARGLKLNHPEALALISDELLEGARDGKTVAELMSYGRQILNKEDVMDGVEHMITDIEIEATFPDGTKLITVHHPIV

Structure (SMILES): NP(N)(=O)NC(=O)c1ccc(F)cc1 [FF, N-(diaminophosphinyl)-4-fluorobenzenamide]
- IC50 [1]: 34.2 nM
- IC50 [2]: 131 nM

Structure (SMILES): NC(N)=O [urea]
- urea hydrolysis in lysates by coupled enzyme assay; activity lost in ureD::Tn mu [3]: loss of urease activity in the mutant strain and reconstitution of activity in the complementation strain using a coupled enzyme assay
